Entries after “also recorded” stand apart in the source; their conditions may differ.
Tests used:
PC3 cells = assay: Titration of 2-bromopalmitate to a non-toxic concentration in PC3 cells; assay type: cell-based; conditions: 24 hours, serum-starvation
Description: (§1) The PC3 cell line was obtained from the American Type Culture Collection (ATCC). The DU145DIAPH3-KD cell line, stably transfected with DIAPH3 shRNA, was generated in our laboratories. PC3 and DU145DIAPH3-KD cell lines were cultured in DMEM (Invitrogen). All cells were supplemented with 10% foetal bovine serum (Denville Scientific), 2 mM L-glutamine (Invitrogen) and 1% PenStrep (Invitrogen). DU145DIAPH3-KD cells were additionally selected with 2 μg/mL puromycin as described. All cells were grown at 37° C. and 5% CO2. Cell viability of the EV-producer cells was tested with the 0.4% Trypan Blue (Sigma) exclusion method. All cell lines were routinely tested for mycoplasma contamination by using the MycoAlert PLUS Mycoplasma Detection Kit (Lonza). Finally, in order to collect EVs from cells in which palmitoylation was inhibited, PC3 cells were treated for 24 hours with 2-bromohexadecanoic acid (Sigma), also known as 2-bromopalmitate (0.5, 1, 5, 10, 20, 50 and 100 μM), in serum-starvation.
Finally, we investigated if palmitoylation had any influence on the localization of select proteins in EVs. To do so, we titrated the concentration of 2-bromopalmitate (2-BP), a general inhibitor of palmitoylation, to a non-toxic concentration of 10 μM in PC3 cells (data not shown) in order to avoid any alterations in the EV shedding (FIG. 18(d)) and recovery of EV-protein (FIG. 18(e)). […]

[1] = system: palmitoylation in PC3 cells; assay: Immunoblot of protein abundance in PC3 L- and S-EVs after inhibition of palmitoylation; assay type: cell-based
Description: as §1
The isolation of EVs was conducted as previously described with minor modifications (Vagner et al. Large extracellular vesicles carry most of the tumour DNA circulating in prostate cancer patient plasma. J Extracell Vesicles. 2018; 7(1):1505403; Minciacchi et al. Large oncosomes contain distinct protein cargo and represent a separate functional class of tumor-derived extracellular vesicles. Oncotarget. 2015; 6(13):11327-11341; Minciacchi et al. MYC mediates large oncosome-induced fibroblast reprogramming in prostate cancer. Cancer Res. 2017; 77(9):2306-2317). Cells were grown on 18×150 cm^2-cell culture plates (Corning) until 90% confluence, washed in PBS and serum-starved for 24 hours before the collection of conditioned cell media. The conditioned media was cleared by differential centrifugation of floating cells at 300 g, of cell debris at 2,800 g for 10 min, and spun in an ultracentrifuge at 10,000 g for 30 min (4° C., k-factor 2547.2) for the collection of L-EVs. The supernatant was then spun at 100,000 g for 60 min (4° C., k-factor 254.7) for the collection of S-EVs. Both 10,000 g and 100,000 g pellets were then subjected to Optiprep™ (Sigma) density gradient purification. Fresh pelleted EVs were resuspended in 0.2 μm-filtered PBS and deposited at the bottom of an ultracentrifuge tube. […]
Immunoblotting analysis was performed as described (Zhou et al. Low-background Acyl-biotinyl exchange largely eliminates the co-isolation of non-S-Acylated proteins and enables deep S-Acylproteomic analysis. Anal Chem. 2019; 91(15):9858-9866). […] Densitometric quantification of films was performed with the ImageJ software (v1.52a). […]

[2] = 10 μM 2-BP for 24 h, PC3 L- and S-EVs

CCCCCCCCCCCCCCC(Br)C(=O)O (centres unmarked) [2-BP, 2-bromohexadecanoic acid]
non-toxic concentration (PC3 cells): 10 µM | ABCC4 in EVs [1, 2]: decrease; also recorded: reduced | STEAP1 in EVs [1, 2]: decrease | STEAP2 in EVs [1, 2]: decrease; also recorded: reduced | Cav-1 levels in EVs ([1]; 10 μM 2-BP, PC3 EVs): did not change; also recorded: did not alter the localization
